Data from US8501789B2, “Use of salicylaldehyde isonicotinoyl hydrazone (SIH) for protection against retinal disease” (The Trustees of the University of Pennsylvania, priority 2007, dated 2013).
Where two headings read alike, the source gives them in different places.

Tests used:
[1] = system: ARPE-19 cells; type: cell-based; settings: for 5 mM H2O2 cytotoxicity: LDH release and Live/Dead
Procedure: Red indicates dead cells as detected by ethidium bromide homodimer fluorescence. Green indicates live cells as detected by calcein fluorescence;
(§1) Human adult RPE cells (ARPE-19 cell line from ATCC) were cultured until confluent in 24-well Falcon plates in 1:1 DMEM High Glucose with L-Glutamine and Ham's F12 media (Invitrogen, Carlsbad, Calif.) supplemented with 10% FBS (Hyclone, Logan, Utah). For labile iron detection ARPE cells were stably transfected with a pcDNA3.1 plasmid with an IRE-GFP insert (gift of Drs. Sangwon Kim and Sol Snyder, Johns Hopkins) as a reporter for intracellular iron levels. These cells were named iron-reporting ARPE (iRPE) cells. Efficacy of labile iron chelation was tested by adding different concentrations of SIH to the iron-free MEM medium on iRPE cells and assessing decrease in GFP fluorescence as a measure of reduction in intracellular iron levels at the 24 h time point. Epifluorescence microscopy was performed with a Nikon TE-300 microscope (Nikon Inc., Japan) and SpotRT Slider camera (Diagnostic Instruments, Inc., Sterling Heights, Mich.) with ImagePro Plus software, version 4.1 (Media Cybernetics, Silver Spring, Md.).
(§2) To evaluate SIH's cytoprotective properties, SIH at different concentrations was applied to confluent ARPE-19 cells four hrs prior to the addition of H2O2, staurosporine or anti-Fas antibody. Hydrogen peroxide (30% H2O2 from Sigma, St. Louis, Mo.) at final concentration ranging from 1 to 5 mM, Staurosporine (1 mM solution from Sigma) at 100-500 nM final concentration or aFas antibody (Upstate-Millipore, Billerica, Mass.) at 1 μg/mL final concentration were mixed with the indicated concentrations of SIH immediately before applying to ARPE-19 cells. All reagents were dissolved in Minimal Essential Medium (MEM, Invitrogen) as indicated and were applied rapidly and uniformly following two washing steps in HBSS.
Cell death was assayed after 24 hrs using the LDH Release Assay Kit (Roche, Basel, Switzerland). Cytotoxicity was calculated using the ratio between maximum LDH release in 2% Triton X100-treated cells and minimum LDH release in cells incubated in MEM. Visualization of cell death was performed using the LIVE/DEAD Viability/Cytotoxicity kit (Invitrogen).

[2] = system: intracellular labile iron levels in ARPE-19 cells stably transfected with the IRE-GFP reporter (iRPE); experiment: Labile iron chelation in IRE-GFP iron-reporting ARPE (iRPE) cells, GFP fluorescence; type: cell-based, Human; settings: for GFP fluorescence (labile iron level): iRPE cells, 24 h, iron-free MEM
Procedure: Fluorescence intensity indicates relative intracellular iron levels. […] Images are representative of results from 3 independent experiments and taken using identical exposure parameters;
as §1, with “Efficacy of labile iron chelation was tested by adding different concentrations of SIH to the iron-free MEM medium on iRPE cells and assessing decrease in GFP fluorescence as a measure of reduction in intracellular iron levels at the 24 h time point.” left out
To quantify the labile iron pool, an iron-reporting RPE cell line (iRPE) was first generated, wherein fluorescence green fluorescent protein reflects labile iron levels. This was accomplished by making a stable cell line with the plasmid IRE-GFP (gift of Sangwon Kim and Sol Snyder). The iron responsive element (IRE) sequence in the 5′ untranslated region of the mRNA is bound by iron regulatory proteins only when labile iron levels are low, leading to inhibition of GFP translation. The fluorescence of iRPE cells treated with different concentrations of SIH for 24 h was determined (FIG. 2).

[3] = system: ARPE-19 cells; type: cell-based, Human
[4] = system: ARPE-19 cells; experiment: Staurosporine-induced cell death, LDH release and LIVE/DEAD assay; type: cell-based, Human
Procedure: as §2, with “(A) Graph of LDH release following exposure of ARPE-19 cells to varying concentrations of staurosporine. […] (B) Graph of LDH release following exposure of ARPE-19 cells to 200 nM staurosporine plus different concentrations of SIH. […] (C) Fluorescence photomicrograph of cells labeled with the LIVE/DEAD assay following treatment with staurosporine and/or SIH as indicated; To” for “To”, “HBSS. Cell death was assayed after 24 hrs using the LDH Release Assay Kit (Roche, Basel, Switzerland). Cytotoxicity was calculated using the ratio between maximum LDH release in 2% Triton X100-treated cells and minimum LDH release in cells incubated in MEM. Visualization of cell death was performed using the LIVE/DEAD Viability/Cytotoxicity kit (Invitrogen).” for “HBSS.”

[5] = system: ARPE-19 cells that had accumulated A2E; experiment: A2E/blue light-induced cell death, MTT assay; type: cell-based
Procedure: Graphs show ARPE-19 cell viability measured by the MTT assay. Increased absorbance indicates increased viability. (A) Cells were incubated with the indicated concentrations of SIH-MEM for 4 h, irradiated with blue light for 20 min in DPBS-SIH, and incubated in MEM-SIH for 24 hr before performing MTT assay. (B) Cells were pre-treated with MEM-SIH for 4 h, irradiated with blue light for 20 min in DPBS and incubated in MEM for 24 h. (C) Cells were irradiated by blue light for 20 min in DPBS and SIH-MEM was applied immediately after irradiation and maintained for 24 hrs. (D) Cells were irradiated with blue light for 20 min in DPBS and SIH-MEM was applied 1 h after irradiation and maintained for 23 h before performing MTT assay. For all graphs, relative to no SIH, * p<0.05, ** p<0.01, *** p<0.001;
For blue light irradiation experiments ARPE-19 cells devoid of endogenous lipofuscin were grown in complete medium (DMEM with 10% fetal calf serum and supplements) as previously described. At confluence the cells were allowed to accumulate A2E from a 10 μM concentration delivered in the culture medium over a 2 week period.
ARPE-19 cells that had accumulated A2E were treated with SIH in MEM for 4 hrs unless otherwise indicated. The SIH/MEM was subsequently exchanged for DPBS, the cells were irradiated at 430 nm for 20 min and then returned to complete medium and incubated for 24 hrs. Variations on this paradigm included experiments in which exposure to SIH/MEM was continued during illumination at 430 nm and for 24 hr thereafter; and experiments in which cells were not pre-incubated with SIH but instead were treated with SIH/MEM beginning either immediately after irradiation and continuing for 24 hrs or beginning 1 hr after irradiation and continuing for 23 hrs. In all experiments controls included A2E-laden irradiated cells that were not treated with SIH, cells that received no treatment (A2E-free, non-irradiated, incubation with MEM in the absence of SIH) and cells treated only with SIH.
In blue light irradiation experiments cell death was assayed by the 3-(4,5-dimethylthiazol-2-yl)-2,5-diphenyltetrazolium bromide assay, a measure of the ability of healthy cells to cleave the yellow tetrazolium salt MTT to purple formazan crystals. Briefly, following the post-illumination incubation described above, 20 uL of MTT labeling reagent (Roche Diagnostics Corp, Indianapolis, Ind.) was added to 0.2 mL of culture medium in each well and after a 4 hr incubation, the labeling reagent was replaced with 200 uL of solubilization solution for an overnight incubation. After centrifugation at 13,000 rpm for 2 min, supernatants were measured spectrophotometrically. A decrease in the absorbance (570 nm) of reduced MTT was indicative of diminished cellular viability.

[6] = system: ARPE-19 cells; experiment: Anti-Fas antibody (aFas)-induced cell death, LDH release assay; type: cell-based, Human; settings: SIH beginning 4 hrs before treatment with aFas
Procedure: All reagents were dissolved in Minimal Essential Medium (MEM, Invitrogen) as indicated and were applied rapidly and uniformly following two washing steps in HBSS. Cell death was assayed after 24 hrs using the LDH Release Assay Kit (Roche, Basel, Switzerland). Cytotoxicity was calculated using the ratio between maximum LDH release in 2% Triton X100-treated cells and minimum LDH release in cells incubated in MEM.

[7] = system: ARPE-19 cells; experiment: Intracellular ROS generation, dihydrorhodamine 123 fluorescence; type: cell-based, Human
Procedure: Level of ROS generation is detected by dihydrorhodamine 123 (green fluorescence) in cells treated with staurosporine and/or 3 μM SIH as indicated. Mitotracker dye (red fluorescence) indicates location of mitochondria; and
Intracellular ROS generation was measured in cultured cells by using the fluorescent probe dihydrorhodamine 123 (DHR123). Mitochondria were localized with Mitotracker Red 580 (Molecular Probes, Eugene, Oreg.). After 30 min of staurosporine exposure with our without SIH, cells were incubated with staurosporine +/−SIH in the presence of 10 μM DHR123 and 2 μM Mitotracker Red 580 at 37° C. for 15 min. DHR fluoresces and localizes to mitochondria when oxidized by ROS to the positively charged rhodamine 123^33. Mitotracker dye passively diffuses across the plasma membrane and specifically accumulates in active mitochondria.
To test whether iron contributes to this ROS production, and whether a decrease in mitochondrial ROS might be a mechanism of SIH protection, ROS were detected with rhodamine 123 after 30 min of staurosporine treatment. In the presence of ROS, non-fluorescent dihydrorhodamine 123 is converted into highly fluorescent rhodamine 123.

[8] = UV/VIS spectra of SIH, H2O2 and their mixture (chemical interaction); type: physicochemical

`OO` [H2O2, hydrogen peroxide, reference compound] showed a cell death ([1]; 5 mM H2O2, 24 h, LDH release and Live/Dead assay) of 100%.
In the case of `O=C(NN=Cc1ccccc1O)c1ccncc1` [SIH, salicylaldehyde isonicotinoyl hydrazone], the “GFP fluorescence (labile iron level)” value ([2]; 3 μM SIH) is reported as “decreased significantly”, the “GFP fluorescence (labile iron level)” value ([2]; 10 μM SIH) is reported as “decreased significantly” and the “GFP fluorescence (labile iron level)” value ([2]; 50 μM SIH) is reported as “close to the level of untreated control”. The “GFP fluorescence (labile iron level)” value ([2]; 100 μM SIH) was “close to the level of untreated control”, the “GFP fluorescence (labile iron level)” value ([2]; 1 mM SIH) was “decreased slightly” and the iRPE fluorescence levels ([2]; iron-containing medium DMEM-F12 with 10% fetal calf serum) was “decreased the fluorescence”. The “carbonyl levels in total protein extracts” value ([3]; H2O2-treated cells, 5 μM SIH, 24 h) was “did not affect”, the “carbonyl levels in mitochondria-enriched fractions” value ([3]; cells treated for 24 h with H202, 5 μM SIH) was “more pronounced decrease” and the “carbonyl levels in mitochondria-enriched fractions” value ([3]; cells treated for 24 h with staurosporine, 5 μM SIH) was “more pronounced decrease”. For the same compound, the “carbonyls in total protein extracts” value ([3]; staurosporine-treated cells, 5 μM SIH, 24 h) was “small decrease”, the “cell viability (LDH release)” value ([4]; SIH 4 h before and through 24 h of 200 nM staurosporine) was “increased in an SIH concentration-dependent manner” and the “cell viability (LDH release)” value ([4]; SIH 4 h before and through 24 h of 500 nm staurosporine (not shown)) was “increased in an SIH concentration-dependent manner”. For the same compound, the “red (dead) cells, live/dead fluorescent imaging” value ([4]; staurosporine plus 5 μM SIH) was “very few or none”, the “red (dead) cells, live/dead fluorescent imaging” value ([4]; staurosporine plus 10 μM SIH) was “very few or none” and the “SIH concentration of greatest cytoprotective effect” value ([4]; staurosporine-induced cell death) was 10 µM. The “protection of cell viability (MTT)” value ([5]; SIH applied 1 hr after light exposure) was “partial protection”, the “cell viability (MTT)” value ([5]; SIH before, during, or as late as 1 hr after blue light exposure) was “cell viability was increased” and the “cell viability (MTT)” value ([5]; SIH present before, during, and after light exposure) was “greatest increase in cell viability”. The SIH-mediated toxicity ([5]; cells incubated with SIH but not exposed to A2E or blue light) was “No SIH-mediated toxicity”, the “5 mM H2O2 cytotoxicity” value ([1]; 5 μM SIH before H2O2 and mixed with H2O2, 24 h) was “completely abolished” and the “5 mM H2O2 cytotoxicity” value ([1]; 10 μM SIH before H2O2 and mixed with H2O2, 24 h) was “completely abolished”. The “cytoprotection against H2O2” value ([1]; SIH applied 1 h after H2O2 (data not shown)) was “no protection”, the “cytoprotection against H2O2” value ([1]; SIH applied together with H2O2 but without SIH pre-treatment) was “Diminished cytoprotection” and the “cytoprotection against H2O2” value ([1]; SIH pre-incubated with ferric ammonium citrate in a 2:1 molar ratio (data not shown)) was “no protection”. For the same compound, the “cell death caused by Fas activation (LDH release)” value [6] was “reduced cell death”, the “staurosporine-induced rhodamine 123 fluorescence (ROS)” value ([7]; 3 μM SIH) was “diminished” and the “changes in spectroscopic properties of SIH-H2O2 mixture compared with SIH and H2O2 alone” value [8] was “did not detect any changes”.
For `CN[C@@H]1C[C@H]2O[C@@](C)([C@@H]1OC)n1c3ccccc3c3c4c(c5c6ccccc6n2c5c31)C(=O)NC4` [staurosporine, reference compound], the “cell death (LDH release)” value ([4]; 200 nM staurosporine) was “significant cell death”, the “cell death (LDH release)” value ([4]; 500 nM staurosporine) was “significant cell death” and the “fluorescence of rhodamine 123 (ROS)” value ([7]; 200 nM staurosporine for 30 min, then dihydrorhodamine 123 for 15 min) was “increased fluorescence”. The “fluorescence of rhodamine 123 (ROS)” value ([7]; 500 nM staurosporine) was “greater increase in fluorescence”.
